Assay [1] concerns kinase/NanoLuc® (Nluc) fusion proteins. The assay is described as follows: NanoBRET relative BRET signal of kinase tracers against a panel of kinase/NanoLuc fusions in live cells. The class given is cell-based. The following applies: HEK293 cells, 2 hours, 0.5 uM CC-1804, CC-1852, or 1 uM CC-1294; compared to CC-1294. How it is done:
FIG. 1A-B. Summary of the BRET results generated with kinase tracers against a large panel of kinase/NanoLuc® fusions expressed in live cells. Assay signals were assessed by taking the ratio of BRET in the presence of tracer/no tracer control. Assays are categorized as follows: >3-fold signal (green cells), 2-3 fold signal (yellow cells), and 1.5-2 fold signal (red cells).
FIG. 1C-F. Individual BRET signals observed between the broad-spectrum kinase tracers and individual kinase/NanoLuc® fusions expressed in live cells. Assay signals were assessed by taking the ratio of BRET in the presence of tracer/no tracer control. Assays are categorized as follows: >3-fold signal (green cells), 2-3 fold signal (yellow cells), and 1.5-2 fold signal (red cells).
Experiments were conducted during development of embodiments herein to derive a comprehensive analysis of intracellular kinase target engagement using NanoBRET™ tracers derived from CC-1294 versus NanoBRET™ tracers derived from novel inhibitors. […] NanoBRET was measured on a Glomax® Discover plate reader. To determine relative BRET signals, BRET arising from the tracer was divided by BRET in the absence of tracer.
On the technique in general: Bioluminescence resonance energy transfer reports proximity on the nanometre scale.

Assay [2] relates to kinase/Nluc fusions.
Method: NanoBRET™ assays were run by competitive displacement of NanoBRET™ tracers in living HEK293 cells.
Values were measured by competitive displacement of NanoBRET™ tracers in living cells.
In wells of 96-well plates, 20,000 HEK293 cells per well were transfected with kinase/Nluc fusions expressed from pFN31K and pFN32K plasmids. Transfections were performed using 3:1 FuGENE HD:plasmid ratios. 24 hours post transfection, cells were treated for 2 hours in the presence of tracer and varying concentration of control inhibitor indicated. After incubation, NanoBRET™-TE substrate/inhibitor solution was added to a final concentration of 1×, and BRET was measured on a Glomax® Discover plate reader.
Assay [3] has as its system kinase/Nluc fusions. The assay is described as follows: NanoBRET fractional occupancy by competitive displacement of NanoBRET tracers in living HEK293 cells. It is filed as cell-based. Conditions: of the 200 kinases evaluated, 300 nM test compound, 2 hours, CC-1861 vs CTx (FIG. 5). How it is done: Transfections were performed using 3:1 FuGENE HD:plasmid ratios.

As to `NC(=O)c1ccccc1Nc1nc(Nc2cccc(N3CCNCC3)c2)ncc1Cl` [CC-1852], in assay [1], the “target engagement/kinase profiling breadth (relative BRET signal, tracer / no tracer)” value is reported as “unexpectedly broad spectrum target engagement/kinase profiling”.
As to `NC(=O)c1ccccc1Nc1nc(Nc2ccc(N3CCNCC3)cc2)ncc1Cl` [CC-1861, 2-((5-chloro-2-((4-(piperazin-1-yl)phenyl)amino)pyrimidin-4-yl)amino)benzamide], the “inhibitor potency compared to CTx” value with kinase/Nluc fusions [2] (HEK293 cells, 2 hours, tracer plus varying concentration of inhibitor (FIG. 7)) is “increased inhibitor potency”. Besides, the “intracellular affinity compared to CTx-0294885” value with kinase/Nluc fusions [2] (living HEK293 cells, four targets tested (FIG. 7)) is reported as “stronger than CTx-0294885 for three of the four targets tested”.
Consider `CNC(=O)c1ccccc1Nc1nc(Nc2ccc(N3CCNCC3)cc2)ncc1Cl` [CTx-0294885, 2-((5-chloro-2-((4-(piperazin-1-yl)phenyl)amino)pyrimidin-4-yl)amino)-N-methylbenzamide], for which, in the assay with kinase/Nluc fusions [3], the “number of kinases that preferred the compound over the other” value came to 4.

The record behind these values is US12078634B2, “Broad spectrum kinase binding agents” (Promega Corporation, priority 2018, dated 2024).
